Assay results: patent EP1564305A2, “Means for detecting and treating cancer cells resistant to therapeutic agents” (priority 2004, dated 2005)
“Also recorded” adds a separate entry of the source.

Key:
[1] = Toxicity in treated xenograft-bearing mice (weight loss, clinical observation); format: in vivo, nude mice; conditions: gefitinib 40 or 120 mg/kg per os 5 days a week; PEITC 20 to 90 mg/kg per os every 2 days
Procedure: (§1) Briefly, tumor xenografts were maintained by successive s.c. transplantation of tumor fragments in 8-week old nude mice. Tumor growth curves were obtained by plotting the mean relative tumor volume (i.e. the volume at a given time divided by the volume at the start of the experiment) from groups of at least 5 mice against time. Gefitinib was administered per os at 40 or 120 mg/kg 5 days a week for 3 to 5 weeks, while PEITC dissolved in corn oil was administered per os at 20 to 90 mg/kg every 2 days.

[2] = test system: human SC131 NSCLC xenograft; format: in vivo, nude mice
Procedure: (§2) The effect of gefitinib and PEITC alone or in combination on the growth of human tumor xenografts in nude mice was tested according to previously published procedures.
as §1

[3] = test system: Hep2 human HNSCC cell line; experiment: cells; format: cell-based
Procedure: (§3) The 3-(4,5-dimethylthiazol-2-yl)-2,5-diphenyltetrazolium bromide (MTT) cell proliferation assay was used to determine the growth inhibitory effect of gefitinib on the Hep2, CAL33 and […] human HNSCC cell lines. […] Each measurement was done in quadruplicate and the data were expressed as % proliferation of control cells incubated in the absence of drug.

[4] = test system: CAL33 human HNSCC cell line; experiment: cells; format: cell-based; conditions: CAL-33, MTT, 72h incubation, drug used alone
Procedure: as §3

[5] = test system: PC3 human HNSCC cell line; experiment: cells; format: cell-based; conditions: MTT, 72h incubation, drug used alone
Procedure: as §3

[6] = test system: human HEP-2 HNSCC xenograft; design: species or system nude mice; conditions: mouse, in vivo
Procedure: as §2, §1

NSCLC = conditions: gefitinib added to chemotherapy; over 2000 previously untreated NSCLC patients; cited from earlier work
advanced NSCLC = conditions: 142 patients with refractory disease; cited from earlier work
[7] = test system: human IC9 NSCLC xenograft; experiment: Tumor xenograft growth in nude mice; format: in vivo; conditions: gefitinib 120 mg/kg per os, 5 days a week for 3 to 5 weeks
Procedure: as §2, §1

[8] = test system: human TEP NSCLC xenograft; experiment: Tumor xenograft growth in nude mice; format: in vivo; conditions: gefitinib 120 mg/kg per os, 5 days a week for 3 to 5 weeks
Procedure: as §2, §1

[9] = test system: human IC14 NSCLC xenograft; experiment: Tumor xenograft growth in nude mice; format: in vivo; conditions: gefitinib 120 mg/kg per os, 5 days a week for 3 to 5 weeks
Procedure: as §2, §1

| Structure (SMILES) | toxicity, judged by absence of weight loss and clinical observation [1] | inhibition of tumor growth ([2]; mouse, in vivo) | IC50 ([3]; Homo sapiens, HEP-2, MTT, 72h incubation, drug used alone) | IC50 [4] | IC50 [5] | inhibition of tumor growth [6] | benefit in survival, tumor response, or time to progression (NSCLC) | response rate (advanced NSCLC) | tumor growth response [7] | tumor growth response [8] | tumor growth response [9] | tumor growth response ([2]; gefitinib 120 mg/kg per os, 5 days a week for 3 to 5 weeks) | increase in the IC50 for gefitinib, compared with CAL33 and PC3 ([3]; Hep2 versus CAL33 and PC3) |
| --- | --- | --- | --- | --- | --- | --- | --- | --- | --- | --- | --- | --- | --- |
| S=C=NCCc1ccccc1 [PEITC, Phenylethyl isothiocyanate] | No toxicity was observed | neither gefitinib or PEITC had any antitumor effect | 350 µM | 180 µM | 490 µM | neither gefitinib or PEITC had any antitumor effect |  |  |  |  |  |  |  |
| COc1cc2ncnc(Nc3ccc(F)c(Cl)c3)c2cc1OCCCN1CCOCC1 [gefitinib, Gefitinib] | No toxicity was observed |  |  |  |  |  | no benefit | 10% | sensitive; also recorded: responded | responded | responded | refractory; also recorded: did not respond | 4 fold |
